Measurements: ChEMBL document CHEMBL5226282, “TLR2 Agonistic Small Molecules: Detailed Structure-Activity Relationship, Applications, and Future Prospects” (J Med Chem, 2021)

Legend:
[1] = biological target: Toll-like receptor 1/2 (Mus musculus); test: Agonist activity at TLR2/TLR1 in mouse Macrophage cell line
Toll-like receptor 1/2 = Toll-like receptor 1/2 (Homo sapiens, UniProt O60603+Q15399); test: Agonist activity at TLR2/TLR1 in human THP-1 cells; assay type: cell-based
Toll-like receptor 1/2, sequence (O60603 whole entry): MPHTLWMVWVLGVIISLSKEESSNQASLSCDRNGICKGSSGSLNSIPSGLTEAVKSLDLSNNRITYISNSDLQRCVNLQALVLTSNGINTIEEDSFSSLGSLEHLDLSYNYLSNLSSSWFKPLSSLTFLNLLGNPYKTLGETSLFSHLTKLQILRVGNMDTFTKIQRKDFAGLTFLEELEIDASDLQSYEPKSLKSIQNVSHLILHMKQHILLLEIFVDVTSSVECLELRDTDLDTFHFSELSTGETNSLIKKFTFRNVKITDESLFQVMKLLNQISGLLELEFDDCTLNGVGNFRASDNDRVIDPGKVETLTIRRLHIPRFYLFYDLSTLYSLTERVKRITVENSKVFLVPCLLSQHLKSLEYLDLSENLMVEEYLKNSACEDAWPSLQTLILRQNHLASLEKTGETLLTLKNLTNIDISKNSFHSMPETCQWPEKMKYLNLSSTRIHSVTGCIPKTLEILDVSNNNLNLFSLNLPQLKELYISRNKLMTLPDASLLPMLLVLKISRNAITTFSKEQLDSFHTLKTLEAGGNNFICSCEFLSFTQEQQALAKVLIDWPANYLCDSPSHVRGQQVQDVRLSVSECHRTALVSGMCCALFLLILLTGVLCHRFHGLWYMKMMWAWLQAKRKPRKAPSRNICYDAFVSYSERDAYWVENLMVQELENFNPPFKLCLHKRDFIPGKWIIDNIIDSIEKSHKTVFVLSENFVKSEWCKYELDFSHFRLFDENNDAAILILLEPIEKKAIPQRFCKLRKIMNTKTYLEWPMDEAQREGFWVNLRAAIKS
Toll-like receptor 1/2, sequence (Q15399 whole entry): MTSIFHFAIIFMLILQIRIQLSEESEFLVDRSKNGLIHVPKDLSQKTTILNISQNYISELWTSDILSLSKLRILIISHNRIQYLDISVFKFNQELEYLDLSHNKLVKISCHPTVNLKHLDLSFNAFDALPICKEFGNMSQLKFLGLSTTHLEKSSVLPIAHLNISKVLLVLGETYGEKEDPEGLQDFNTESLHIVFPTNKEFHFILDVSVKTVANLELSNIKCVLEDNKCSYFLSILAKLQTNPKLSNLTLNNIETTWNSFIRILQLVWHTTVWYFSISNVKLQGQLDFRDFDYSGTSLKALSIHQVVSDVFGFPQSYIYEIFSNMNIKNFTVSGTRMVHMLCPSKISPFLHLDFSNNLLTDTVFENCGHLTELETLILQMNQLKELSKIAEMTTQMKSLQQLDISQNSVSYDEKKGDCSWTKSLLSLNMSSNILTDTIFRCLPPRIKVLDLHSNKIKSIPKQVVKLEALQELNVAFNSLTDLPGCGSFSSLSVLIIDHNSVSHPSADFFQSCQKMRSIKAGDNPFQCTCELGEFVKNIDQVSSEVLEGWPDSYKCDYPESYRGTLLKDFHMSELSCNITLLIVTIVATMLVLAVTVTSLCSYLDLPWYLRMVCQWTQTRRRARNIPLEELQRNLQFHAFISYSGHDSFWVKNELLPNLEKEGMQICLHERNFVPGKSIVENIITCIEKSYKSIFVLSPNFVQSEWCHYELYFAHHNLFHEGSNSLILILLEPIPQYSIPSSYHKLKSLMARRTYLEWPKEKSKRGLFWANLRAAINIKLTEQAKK

Structure (SMILES) | EC50 [1] [µM] | EC50 (Toll-like receptor 1/2) [µM]
Nc1ccc(CCNC(=O)[C@@H]2CN(C(=O)c3ccc(C(=O)N4C[C@@H](C(=O)NCCc5ccc(N)cc5)[C@H](C(=O)NCCc5ccc(N)cc5)C4)cc3)C[C@H]2C(=O)NCCc2ccc(N)cc2)cc1 (racemic) |  | > 5
O=C(NCCc1ccc(Cl)cc1)[C@@H]1CN(C(=O)c2ccc(C(=O)N3C[C@@H](C(=O)NCCc4ccc(Cl)cc4)[C@H](C(=O)NCCc4ccc(Cl)cc4)C3)cc2)C[C@H]1C(=O)NCCc1ccc(Cl)cc1 (racemic) |  | > 5
CCCCNC(=O)[C@@H]1CN(C(=O)c2ccc(C(=O)N3C[C@@H](C(=O)NCCCC)[C@H](C(=O)NCCCC)C3)cc2)C[C@H]1C(=O)NCCCC | > 0.005 | > 0.005
Cc1ccc(CCNC(=O)[C@@H]2CN(C(=O)c3ccc(C(=O)N4C[C@@H](C(=O)NCCc5ccc(C)cc5)[C@H](C(=O)NCCc5ccc(C)cc5)C4)cc3)C[C@H]2C(=O)NCCc2ccc(C)cc2)cc1 (racemic) |  | > 5
O=C(NCCc1ccc(Br)cc1)[C@@H]1CN(C(=O)c2ccc(C(=O)N3C[C@@H](C(=O)NCCc4ccc(Br)cc4)[C@H](C(=O)NCCc4ccc(Br)cc4)C3)cc2)C[C@H]1C(=O)NCCc1ccc(Br)cc1 (racemic) |  | > 5
O=C(NCCc1ccc(F)cc1)[C@@H]1CN(C(=O)[C@@H]2CCC[C@H](C(=O)N3C[C@@H](C(=O)NCCc4ccc(F)cc4)[C@H](C(=O)NCCc4ccc(F)cc4)C3)C2)C[C@H]1C(=O)NCCc1ccc(F)cc1 | > 5 | > 5
CCCCCCCCCCCCCCCCNC(=O)[C@@H]1CN(C(=O)c2ccc(C(=O)N3C[C@@H](C(=O)NCCCCCCCCCCCCCCCC)[C@H](C(=O)NCCCCCCCCCCCCCCCC)C3)cc2)C[C@H]1C(=O)NCCCCCCCCCCCCCCCC | > 0.005 | 
O=C(NCCc1ccc(F)cc1)[C@@H]1CN(C(=O)COCC(=O)N2C[C@@H](C(=O)NCCc3ccc(F)cc3)[C@H](C(=O)NCCc3ccc(F)cc3)C2)C[C@H]1C(=O)NCCc1ccc(F)cc1 | > 5 | > 5
COc1ccc(CCNC(=O)[C@@H]2CN(C(=O)c3ccc(C(=O)N4C[C@@H](C(=O)NCCc5ccc(OC)cc5)[C@H](C(=O)NCCc5ccc(OC)cc5)C4)cc3)C[C@H]2C(=O)NCCc2ccc(OC)cc2)cc1 (racemic) |  | > 5
O=C(NCCc1ccc(C(F)(F)F)cc1)[C@@H]1CN(C(=O)c2ccc(C(=O)N3C[C@@H](C(=O)NCCc4ccc(C(F)(F)F)cc4)[C@H](C(=O)NCCc4ccc(C(F)(F)F)cc4)C3)cc2)C[C@H]1C(=O)NCCc1ccc(C(F)(F)F)cc1 (racemic) |  | > 5
CCCCCCCCNC(=O)[C@@H]1CN(C(=O)c2ccc(C(=O)N3C[C@@H](C(=O)NCCCCCCCC)[C@H](C(=O)NCCCCCCCC)C3)cc2)C[C@H]1C(=O)NCCCCCCCC | > 0.005 | 
CCCCCCNC(=O)[C@@H]1CN(C(=O)c2ccc(C(=O)N3C[C@@H](C(=O)NCCCCCC)[C@H](C(=O)NCCCCCC)C3)cc2)C[C@H]1C(=O)NCCCCCC | > 0.005 | 
CCCCCCCCCCNC(=O)[C@@H]1CN(C(=O)c2ccc(C(=O)N3C[C@@H](C(=O)NCCCCCCCCCC)[C@H](C(=O)NCCCCCCCCCC)C3)cc2)C[C@H]1C(=O)NCCCCCCCCCC | > 0.005 | 
N#Cc1ccc(CCNC(=O)[C@@H]2CN(C(=O)c3ccc(C(=O)N4C[C@@H](C(=O)NCCc5ccc(C#N)cc5)[C@H](C(=O)NCCc5ccc(C#N)cc5)C4)cc3)C[C@H]2C(=O)NCCc2ccc(C#N)cc2)cc1 (racemic) |  | > 5
O=C(NCCc1ccc([N+](=O)[O-])cc1)[C@@H]1CN(C(=O)c2ccc(C(=O)N3C[C@@H](C(=O)NCCc4ccc([N+](=O)[O-])cc4)[C@H](C(=O)NCCc4ccc([N+](=O)[O-])cc4)C3)cc2)C[C@H]1C(=O)NCCc1ccc([N+](=O)[O-])cc1 (racemic) |  | > 5
COC(=O)c1ccc(CCNC(=O)[C@@H]2CN(C(=O)c3ccc(C(=O)N4C[C@@H](C(=O)NCCc5ccc(C(=O)OC)cc5)[C@H](C(=O)NCCc5ccc(C(=O)OC)cc5)C4)cc3)C[C@H]2C(=O)NCCc2ccc(C(=O)OC)cc2)cc1 (racemic) |  | > 5

Second part, the molecule after the results:

EC50 [1] [µM] | EC50 (Toll-like receptor 1/2) [µM] | Structure (SMILES)
0.62 | 0.0013 | CCCCCCCCCCCCNC(=O)[C@@H]1CN(C(=O)c2ccc(C(=O)N3C[C@@H](C(=O)N[C@H]4C[C@@H]4c4ccccc4)[C@H](C(=O)N[C@@H]4C[C@H]4c4ccccc4)C3)cc2)C[C@H]1C(=O)NCCCCCCCCCCCC
> 5 | > 5 | O=C(NCCc1ccc(F)cc1)[C@@H]1CN(C(=O)c2cccc(C(=O)N3C[C@@H](C(=O)NCCc4ccc(F)cc4)[C@H](C(=O)NCCc4ccc(F)cc4)C3)c2)C[C@H]1C(=O)NCCc1ccc(F)cc1
> 5 | > 5 | O=C(N[C@H]1C[C@@H]1c1ccccc1)[C@@H]1CN(C(=O)[C@H]2CC[C@H](C(=O)N3C[C@@H](C(=O)N[C@H]4C[C@@H]4c4ccccc4)[C@H](C(=O)N[C@H]4C[C@@H]4c4ccccc4)C3)CC2)C[C@H]1C(=O)N[C@H]1C[C@@H]1c1ccccc1
> 5 | 0.02 | O=C(N[C@H]1C[C@@H]1c1ccccc1)[C@@H]1CN(C(=O)c2ccc(C(=O)N3C[C@@H](C(=O)N[C@H]4C[C@@H]4c4ccccc4)[C@H](C(=O)N[C@H]4C[C@@H]4c4ccccc4)C3)c(O)c2)C[C@H]1C(=O)N[C@H]1C[C@@H]1c1ccccc1
> 5 | 0.35 | O=C(N[C@H]1C[C@@H]1c1ccccc1)[C@@H]1CN(C(=O)c2ccc(C(=O)N3C[C@@H](C(=O)N[C@H]4C[C@@H]4c4ccccc4)[C@H](C(=O)N[C@H]4C[C@@H]4c4ccccc4)C3)s2)C[C@H]1C(=O)N[C@H]1C[C@@H]1c1ccccc1
0.36 | 0.05 | CCCCCCNC(=O)[C@@H]1CN(C(=O)c2ccc(C(=O)N3C[C@@H](C(=O)N[C@H]4C[C@@H]4c4ccccc4)[C@H](C(=O)N[C@@H]4C[C@H]4c4ccccc4)C3)cc2)C[C@H]1C(=O)NCCCCCC
 | > 5 | O=C(NCCc1ccccc1F)[C@@H]1CN(C(=O)c2ccc(C(=O)N3C[C@@H](C(=O)NCCc4ccccc4F)[C@H](C(=O)NCCc4ccccc4F)C3)cc2)C[C@H]1C(=O)NCCc1ccccc1F (racemic)
0.13 | 0.0002 | O=C(N[C@H]1C[C@@H]1c1ccccc1)[C@@H]1CN(C(=O)/C=C/C=C/C(=O)N2C[C@@H](C(=O)N[C@H]3C[C@@H]3c3ccccc3)[C@H](C(=O)N[C@H]3C[C@@H]3c3ccccc3)C2)C[C@H]1C(=O)N[C@H]1C[C@@H]1c1ccccc1
> 5 | 0.2 | O=C(O)[C@@H]1CN(C(=O)c2ccc(C(=O)N3C[C@@H](C(=O)N[C@H]4C[C@@H]4c4ccccc4)[C@H](C(=O)N[C@@H]4C[C@H]4c4ccccc4)C3)cc2)C[C@H]1C(=O)N[C@H]1C[C@@H]1c1ccccc1
0.25 | 0.03 | COc1cc(C(=O)N2C[C@@H](C(=O)N[C@H]3C[C@@H]3c3ccccc3)[C@H](C(=O)N[C@H]3C[C@@H]3c3ccccc3)C2)ccc1C(=O)N1C[C@@H](C(=O)N[C@H]2C[C@@H]2c2ccccc2)[C@H](C(=O)N[C@H]2C[C@@H]2c2ccccc2)C1
> 5 | > 5 | O=C(N[C@H]1C[C@@H]1c1ccccc1)[C@@H]1CN(C(=O)c2ccc(C(=O)N3C[C@@H](C(=O)N[C@H]4C[C@@H]4c4ccccc4)[C@H](C(=O)N[C@H]4C[C@@H]4c4ccccc4)C3)c(Br)c2)C[C@H]1C(=O)N[C@H]1C[C@@H]1c1ccccc1
0.0012 | 0.00013 | O=C(N[C@H]1C[C@@H]1c1ccc(F)cc1)[C@@H]1CN(C(=O)c2ccc(C(=O)N3C[C@@H](C(=O)N[C@H]4C[C@@H]4c4ccc(F)cc4)[C@H](C(=O)N[C@@H]4C[C@H]4c4ccc(F)cc4)C3)cc2)C[C@H]1C(=O)N[C@H]1C[C@@H]1c1ccc(F)cc1
1.1 | 0.0008 | CCCCCCNC(=O)[C@@H]1CN(C(=O)c2ccc(C(=O)N3C[C@@H](C(=O)NCCCCCC)[C@H](C(=O)N[C@@H]4C[C@H]4c4ccccc4)C3)cc2)C[C@H]1C(=O)N[C@@H]1C[C@H]1c1ccccc1
0.004 | 0.00018 | CCCCCCCCCCNC(=O)[C@@H]1CN(C(=O)c2ccc(C(=O)N3C[C@@H](C(=O)N[C@H]4C[C@@H]4c4ccccc4)[C@H](C(=O)N[C@@H]4C[C@H]4c4ccccc4)C3)cc2)C[C@H]1C(=O)NCCCCCCCCCC
0.64 | 0.015 | COC(=O)[C@@H]1CN(C(=O)c2ccc(C(=O)N3C[C@@H](C(=O)N[C@H]4C[C@@H]4c4ccccc4)[C@H](C(=O)N[C@@H]4C[C@H]4c4ccccc4)C3)cc2)C[C@H]1C(=O)N[C@H]1C[C@@H]1c1ccccc1
> 5 | 0.11 | O=C(N[C@H]1C[C@@H]1c1ccccc1)[C@@H]1CN(C(=O)c2c(F)c(F)c(C(=O)N3C[C@@H](C(=O)N[C@H]4C[C@@H]4c4ccccc4)[C@H](C(=O)N[C@H]4C[C@@H]4c4ccccc4)C3)c(F)c2F)C[C@H]1C(=O)N[C@H]1C[C@@H]1c1ccccc1
> 5 | > 5 | Cc1cc(C(=O)N2C[C@@H](C(=O)N[C@H]3C[C@@H]3c3ccccc3)[C@H](C(=O)N[C@H]3C[C@@H]3c3ccccc3)C2)c(C)cc1C(=O)N1C[C@@H](C(=O)N[C@H]2C[C@@H]2c2ccccc2)[C@H](C(=O)N[C@H]2C[C@@H]2c2ccccc2)C1
> 5 | > 5 | O=C(N[C@H]1C[C@@H]1c1ccccc1)[C@@H]1CN(C(=O)Cc2cccc(CC(=O)N3C[C@@H](C(=O)N[C@H]4C[C@@H]4c4ccccc4)[C@H](C(=O)N[C@H]4C[C@@H]4c4ccccc4)C3)c2)C[C@H]1C(=O)N[C@H]1C[C@@H]1c1ccccc1
1.1 | 0.035 | CCCCCCCCCCNC(=O)[C@@H]1CN(C(=O)c2ccc(C(=O)N3C[C@@H](C(=O)NCCCCCCCCCC)[C@H](C(=O)N[C@@H]4C[C@H]4c4ccccc4)C3)cc2)C[C@H]1C(=O)N[C@@H]1C[C@H]1c1ccccc1
 | > 5 | O=C(NCCc1ccc(O)cc1)[C@@H]1CN(C(=O)c2ccc(C(=O)N3C[C@@H](C(=O)NCCc4ccc(O)cc4)[C@H](C(=O)NCCc4ccc(O)cc4)C3)cc2)C[C@H]1C(=O)NCCc1ccc(O)cc1 (racemic)
 | > 5 | O=C(NCCc1ccccc1)[C@@H]1CN(C(=O)c2ccc(C(=O)N3C[C@@H](C(=O)NCCc4ccc5ccccc5c4)[C@H](C(=O)NCCc4ccc5ccccc5c4)C3)cc2)C[C@H]1C(=O)NCCc1ccc2ccccc2c1 (racemic)
 | > 5 | O=C(NCCc1ccc(-c2ccccc2)cc1)[C@@H]1CN(C(=O)c2ccc(C(=O)N3C[C@@H](C(=O)NCCc4ccc(-c5ccccc5)cc4)[C@H](C(=O)NCCc4ccc(-c5ccccc5)cc4)C3)cc2)C[C@H]1C(=O)NCCc1ccc(-c2ccccc2)cc1 (racemic)
